This note sets out measurements from US20130204033A1, “ANTIPROLIFERATIVE COMPOUNDS, CONJUGATES THEREOF, METHODS THEREFOR, AND USES THEREOF” (Medarex, Inc., priority 2009, published 2013).

Read-outs that look alike come from different tables or passages of the source.

What all share (assay type): cell-based, human
The test system of one experiment is H226. As to the kind of experiment: ATP luminescence proliferation assay, H226. The settings on record: Homo sapiens, NCI-H226, 72 h incubation period, read-out: EC50 against the H226 cell line. The method, then: This example generally describes the procedures used to assay the antiproliferative activity of compounds of this invention or their conjugates. Human tumor cell lines were obtained from the American Type Culture Collection (ATCC), P.O. Box 1549, Manassas, Va. 20108, USA, and cultured according to instruction from the ATCC. Cells were seeded at 1.0×10^3 or 1.0×10^4 cells/well in 96-well plates for 3 h for ATP assays or ^3H thymidine assays, respectively. 1:3 serial dilutions of free (unconjugated) compounds or their conjugates were added to the wells. Plates were allowed to incubate for 24 to 72 h. The ^3H thymidine plates were pulsed with 1.0 μCi of ^3H-thymidine per well for the last 24 hours of the total incubation period, harvested, and read on a Top Count Scintillation Counter (Packard Instruments, Meriden, Conn.). ATP levels in the ATP plates were measured using the […]-GLO® Luminescent Cell Viability kit following the manufacturer's manual and read on a GLOMAX® 20/20 luminometer (both from Promega, Madison, Wis., USA). […]
Using the ^3H thymidine or the ATP luminescence assay, or both, the activities of compounds of this invention were assayed against the following cancer cell lines: HCT-15 (colorectal cancer, multi-drug resistant (MDR)); Hep3B (liver cancer); LNCaP (prostate cancer, androgen receptor positive (AR^+)); MDA-MB-231 (breast cancer, estrogen receptor, progesterone receptor, and Her2 negative (triple negative)); A2058 (melanoma); U-87 MG (glioblastoma); NCI-H460 (NSCLC); A549 (NSCLC); HPAC (pancreatic cancer, primary); PC3 (prostate cancer, AR); BT474 (breast cancer, Her2 highly positive (Her2hi)); SKOV3 (ovarian cancer, Her2hi); 786-O (renal cancer); UO-31 (renal cancer, MDR); NCI-H740 (SCLC); DMS53 (SCLC); SK-BR3 (breast cancer, Her2hi); ZR-75 (breast cancer, estrogen receptor positive); OVCAR3 (ovarian cancer); HL-60 (APL); OVCAR8/Adr (ovarian cancer, MDR); CEM-Cl (ALL); Nomo-1 (AML); RPMI-8226 (MM)); Raji (lymphoma); SW-480 (colorectal cancer, metastatic); SW-620 (colorectal cancer); and H226 (lung cancer). […]

The next experiment concerns 786-O. As to the kind of experiment: ATP luminescence proliferation assay, 786-O. The settings on record: Homo sapiens. The method, then: (§1) This example generally describes the procedures used to assay the antiproliferative activity of compounds of this invention or their conjugates. Human tumor cell lines were obtained from the American Type Culture Collection (ATCC), P.O. Box 1549, Manassas, Va. 20108, USA, and cultured according to instruction from the ATCC. Cells were seeded at 1.0×10^3 or 1.0×10^4 cells/well in 96-well plates for 3 h for ATP assays or ^3H thymidine assays, respectively. 1:3 serial dilutions of free (unconjugated) compounds or their conjugates were added to the wells. Plates were allowed to incubate for 24 to 72 h. The ^3H thymidine plates were pulsed with 1.0 μCi of ^3H-thymidine per well for the last 24 hours of the total incubation period, harvested, and read on a Top Count Scintillation Counter (Packard Instruments, Meriden, Conn.). ATP levels in the ATP plates were measured using the […]-GLO® Luminescent Cell Viability kit following the manufacturer's manual and read on a GLOMAX® 20/20 luminometer (both from Promega, Madison, Wis., USA). The EC50 values—the concentration at which an agent inhibits or reduces cell proliferation by 50% —were determined using PRISM™ software, version 4.0 (GraphPad Software, La Jolla, Calif., USA).
(§2) Using the ^3H thymidine or the ATP luminescence assay, or both, the activities of compounds of this invention were assayed against the following cancer cell lines: HCT-15 (colorectal cancer, multi-drug resistant (MDR)); Hep3B (liver cancer); LNCaP (prostate cancer, androgen receptor positive (AR^+)); MDA-MB-231 (breast cancer, estrogen receptor, progesterone receptor, and Her2 negative (triple negative)); A2058 (melanoma); U-87 MG (glioblastoma); NCI-H460 (NSCLC); A549 (NSCLC); HPAC (pancreatic cancer, primary); PC3 (prostate cancer, AR); BT474 (breast cancer, Her2 highly positive (Her2hi)); SKOV3 (ovarian cancer, Her2hi); 786-O (renal cancer); UO-31 (renal cancer, MDR); NCI-H740 (SCLC); DMS53 (SCLC); SK-BR3 (breast cancer, Her2hi); ZR-75 (breast cancer, estrogen receptor positive); OVCAR3 (ovarian cancer); HL-60 (APL); OVCAR8/Adr (ovarian cancer, MDR); CEM-Cl (ALL); Nomo-1 (AML); RPMI-8226 (MM)); Raji (lymphoma); SW-480 (colorectal cancer, metastatic); SW-620 (colorectal cancer); and H226 (lung cancer). (Not all compounds were assayed against all cell lines.)
(§3) FIGS. 12a and 12b show illustrative plots for ATP luminescence proliferation assays for a second set of compounds of this invention, against HL-60 and 786-O cells, respectively, with an incubation period of 72 h. FIGS. 12c and 12d show the plots for ^3H thymidine proliferation assays for the same set of compounds, again against HL-60 and 786-O cells, respectively, with a 72 h incubation period. In each instance, doxorubicin was used as a comparative compound.
(§4) Table 3 provides the data for the ATP luminescence proliferation assays, with an incubation period of 48, 72, or 96 h, as noted.

The subject of another experiment is OVCAR8/Adr. As to the kind of experiment: ATP luminescence proliferation assay, OVCAR8/Adr. The settings on record: Homo sapiens, OVCAR-8, 48 h incubation period, read-out: EC50 against the OVACAR8/Adr cell line. As for the experimental part:
as §1, §2, §4

For the next experiment, the system named is HL-60. As to the kind of experiment: ATP luminescence proliferation assay, HL-60. The settings on record: Homo sapiens, HL-60, 48 h, read-out: EC50 HL-60 (48 h), ATP luminescence, HL-60, 48 h incubation. As for the experimental part:
as §1, §2, §3, §4

Another experiment deals with OVCAR3. As to the kind of experiment: ATP luminescence proliferation assay, OVCAR3. The settings on record: Homo sapiens, OVCAR-3, 72 h, read-out: EC50 OVCAR3 (72 h), ATP luminescence, OVCAR3, 72 h incubation. As for the experimental part: as §1, §2, §4
The subject of experiment [1] is 786-O renal cancer cells, which are CD70 positive. As to the kind of experiment: In vitro activity of conjugates, 3H thymidine proliferation assay, 786-O. The settings on record: 72 h incubation. The method, then:
as §1
The incubation period was 72 h. The EC50 values extracted from the curves of FIG. 13 are given in Table 4, along data from other experiments. […]

Turning to `CCCN(C(=O)[C@@H](NC(=O)[C@H]1CCCCN1C)[C@@H](C)CC)[C@H](C[C@@H](OC(C)=O)c1nc(C(=O)N[C@@H](Cc2ccccc2)C(=O)OC)cs1)C(C)C` [Compound 109], the EC50 stood at 1.61 nM in the experiment with H226; 1.03 nM with 786-O (786-0, 48 h, read-out: EC50 786-O (48 h), ATP luminescence, 786-O, 48 h incubation); 24.9 nM in the experiment with OVCAR8/Adr; 0.019 nM with HL-60; 0.202 nM with OVCAR3.

On to diphtheria toxin [DTX], for which, in experiment [1], the EC50 worked out at 104 nM.

In the case of `CCCN(C(=O)[C@@H](NC(=O)[C@H]1CCCCN1C)[C@@H](C)CC)[C@H](C[C@@H](OC(C)=O)c1nc(C(=O)N[C@@H](Cc2ccc(N)cc2)CC(C)C(=O)OCC)cs1)C(C)C` (some centres unmarked) [Compound 112], the EC50 is 0.67 to 1.16 nM with H226; 0.67 nM in the experiment on 786-O (786-0, 72 h, read-out: EC50 786-O (72 h), ATP luminescence, 786-O, 72 h incubation); 12 nM in the experiment with OVCAR8/Adr; 0.05 to 0.09 nM in the experiment with HL-60; 0.049 nM in the experiment with OVCAR3.
